According to PMC7166077, “A systematic strategy for estimating hERG block potency and its implications in a new cardiac safety paradigm” (Toxicology and Applied Pharmacology, 2020):

Molecular target: T1, hERG (Kv11.1 potassium channel) (Homo sapiens, UniProt Q12809)
T1 construct: gene KCNH2
Experiment: automated patch clamp, multi-site, Bayesian hierarchical model

T1 sequence (Q12809 whole entry): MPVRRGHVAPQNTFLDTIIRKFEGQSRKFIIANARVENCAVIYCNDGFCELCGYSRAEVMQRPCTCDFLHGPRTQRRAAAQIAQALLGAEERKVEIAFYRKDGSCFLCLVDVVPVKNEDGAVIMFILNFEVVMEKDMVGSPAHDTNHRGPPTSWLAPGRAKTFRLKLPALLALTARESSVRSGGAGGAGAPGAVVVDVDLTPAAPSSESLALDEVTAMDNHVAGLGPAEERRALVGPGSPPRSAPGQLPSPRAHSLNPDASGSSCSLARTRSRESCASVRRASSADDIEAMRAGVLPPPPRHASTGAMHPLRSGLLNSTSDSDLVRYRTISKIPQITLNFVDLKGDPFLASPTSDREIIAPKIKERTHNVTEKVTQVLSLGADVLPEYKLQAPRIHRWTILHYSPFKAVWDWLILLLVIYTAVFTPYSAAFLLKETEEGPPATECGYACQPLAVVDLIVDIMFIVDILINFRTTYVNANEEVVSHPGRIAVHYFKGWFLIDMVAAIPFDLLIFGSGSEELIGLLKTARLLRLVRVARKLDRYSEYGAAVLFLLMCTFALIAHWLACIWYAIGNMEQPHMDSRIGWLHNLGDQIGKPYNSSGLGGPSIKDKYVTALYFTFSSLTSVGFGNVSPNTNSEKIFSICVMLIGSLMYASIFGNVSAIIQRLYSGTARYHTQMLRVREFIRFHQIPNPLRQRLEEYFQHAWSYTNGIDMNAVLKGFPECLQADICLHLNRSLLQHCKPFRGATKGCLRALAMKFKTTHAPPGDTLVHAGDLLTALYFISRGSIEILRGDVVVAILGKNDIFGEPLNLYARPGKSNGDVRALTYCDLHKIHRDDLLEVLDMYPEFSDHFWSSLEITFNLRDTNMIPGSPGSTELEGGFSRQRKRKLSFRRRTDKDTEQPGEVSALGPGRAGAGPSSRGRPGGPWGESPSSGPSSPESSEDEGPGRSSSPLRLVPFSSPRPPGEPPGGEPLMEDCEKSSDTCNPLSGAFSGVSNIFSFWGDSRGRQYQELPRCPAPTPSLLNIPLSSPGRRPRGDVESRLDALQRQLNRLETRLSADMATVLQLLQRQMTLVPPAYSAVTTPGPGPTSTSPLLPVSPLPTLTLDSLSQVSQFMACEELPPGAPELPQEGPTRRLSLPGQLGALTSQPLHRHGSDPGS

`CCOC(=O)C1=C(C)NC(C)=C(C(=O)OC)C1c1cccc([N+](=O)[O-])c1` (stereo not shown) [nitrendipine] was tested, and the IC50 was 20 µM.
